# According to ChEMBL document CHEMBL1201862, “PubChem BioAssay data set” (2004):
#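 48-hour exposure; five concentrations; linearly interpolated endpoints. The concentration for 50% growth inhibition is given as GI50.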 Active and inactive are the calls of the source. Cut-off read from the data, not from the text of the source: active = GI50 up to about 1.1 µM and inactive = higher.
# Experiments:
# Test in all cases: NCI-60 cell line screen, 48 h
# [1] = system: CAKI-1
# [2] = system: A498
# [3] = system: IGROV-1
# [4] = system: SK-MEL-2
# [5] = system: HT-29
# [6] = system: UACC-257
# [7] = system: MOLT-4
# [8] = system: M14
# [9] = system: RXF 393
# [10] = system: KM12
# [11] = system: SF-539
# [12] = system: HL-60
# [13] = system: SK-OV-3
# [14] = system: SK-MEL-5
# [15] = system: SF-268
# [16] = system: EKVX
# [17] = system: NCI-H226
# [18] = system: TK-10
Structure (SMILES),GI50 [1],GI50 [2],GI50 [3],GI50 [4],GI50 [5],GI50 [6],GI50 [7],GI50 [8],GI50 [9],GI50 [10],GI50 [11],GI50 [12],GI50 [13],GI50 [14],GI50 [15],GI50 [16],GI50 [17],GI50 [18]
CNC(=O)OCc1nc(SC(C)C)n(C)c1COC(=O)NC,> 72.3 µM (inactive),> 100 µM (inactive),> 100 µM (inactive),> 100 µM (inactive),> 100 µM (inactive),> 100 µM (inactive),44.8 µM (inactive),> 100 µM (inactive),33.4 µM (inactive),> 100 µM (inactive),> 100 µM (inactive),57 µM (inactive),> 100 µM (inactive),> 100 µM (inactive),> 91.6 µM (inactive),> 100 µM (inactive),> 100 µM (inactive),
CC1NOC(=O)C1/N=N/c1ccccc1Br (stereo unspecified),16.8 µM (inactive),26.8 µM (inactive),36 µM (inactive),16.2 µM (inactive),39.6 µM (inactive),24 µM (inactive),29 µM (inactive),21.4 µM (inactive),13.9 µM (inactive),21.2 µM (inactive),22.3 µM (inactive),18.9 µM (inactive),38.1 µM (inactive),15.3 µM (inactive),28.4 µM (inactive),34.2 µM (inactive),31.6 µM (inactive),24.5 µM (inactive)
IC[P+]1(c2ccccc2)CCCC1,,23.8 µM (inactive),> 100 µM (inactive),> 100 µM (inactive),37.3 µM (inactive),52.4 µM (inactive),72.9 µM (inactive),46.5 µM (inactive),76.7 µM (inactive),32.5 µM (inactive),45.3 µM (inactive),45.1 µM (inactive),> 100 µM (inactive),19.1 µM (inactive),,16.7 µM (inactive),24.2 µM (inactive),47.3 µM (inactive)
CC(C)=CC1CCc2ccccc2N1S(=O)(=O)c1ccc(C)cc1 (stereo unspecified),,1.61 µM (inactive),2.4 µM (inactive),1.79 µM (inactive),1.36 µM (inactive),2.27 µM (inactive),1.18 µM (inactive),1.27 µM (inactive),1.24 µM (inactive),0.624 µM (active),1.16 µM (inactive),0.272 µM (active),1.7 µM (inactive),0.589 µM (active),2.93 µM (inactive),10.6 µM (inactive),1.77 µM (inactive),2.81 µM (inactive)
c1ccc(OCCSCCCCCCCCCCSCCOc2ccccc2)cc1,,27.5 µM (inactive),> 100 µM (inactive),> 100 µM (inactive),,> 100 µM (inactive),> 100 µM (inactive),> 100 µM (inactive),> 100 µM (inactive),> 100 µM (inactive),> 100 µM (inactive),> 100 µM (inactive),> 100 µM (inactive),28.9 µM (inactive),> 100 µM (inactive),16.9 µM (inactive),> 100 µM (inactive),16.9 µM (inactive)
O=C(Nc1ccccc1)O/N=C1/CCCC/C1=C\c1ccccc1,15.7 µM (inactive),23.2 µM (inactive),3.55 µM (inactive),15 µM (inactive),28.2 µM (inactive),19.5 µM (inactive),5.53 µM (inactive),17.8 µM (inactive),16.3 µM (inactive),,17.7 µM (inactive),,20.3 µM (inactive),13 µM (inactive),15.6 µM (inactive),,24.9 µM (inactive),17.9 µM (inactive)
C=C1C(=O)OC2C1CC[C@H](C)C1(O)C(O)CC(=O)[C@@]21C (stereo partly specified),27.7 µM (inactive),10 µM (inactive),28.8 µM (inactive),27.2 µM (inactive),20.4 µM (inactive),14.4 µM (inactive),14.4 µM (inactive),,> 10 µM (inactive),17.3 µM (inactive),19 µM (inactive),17 µM (inactive),24.9 µM (inactive),16.7 µM (inactive),23.3 µM (inactive),19.5 µM (inactive),21.7 µM (inactive),> 10 µM (inactive)
